Structures are written as SMILES. Read-outs that look alike come from different tables or passages of the source. Where only a bound is given, the exact number is not on record here.

Type in all cases: cell-based
The test system of assay [1] is HT29 human colorectal carcinoma cells. Put plainly: XTT test, number of viable cells, HT29. Here is the method: (§1) The effect of the four compounds 497, 631, 115 and 540 on the growth profile of cancer cells which express Fer was tested. The cells that were tested were: the colon cancer cell lines HT29 and HCT 116, the breast cancer cell lines MDA-MB-231 and MCF-7, and the prostate cancer cell lines PC3 and DU145. The effect of each of the four compounds on FS11 cells, a non malignant fibroblastic cell line, was also studied.
(§2) The cells were seeded in 96 wells microplates and were left to grow untreated overnight. Each of the […] compounds was dissolved in DMSO and was then added to each well in a dose dependent manner from 0.4 to 80 μM. The concentration of DMSO in each well was 0.4% v/v. Untreated cells and cells subjected to 0.4% DMSO alone, served as controls. The number of viable cells in each well was determined 48, 72, 96 hours after compounds addition, using the XTT test (Berridge, M. V. et al, 2005).
(§3) The effect of compound E626-0342 on the growth profile of cancer cells which express Fer was tested. The compound was added to the growth media of FS11-normal primary human fibroblasts and to two colon cancer cell lines, HCT116 and HT29, which express Fer.
(§4) Various cell lines were seeded in 96 wells microplates and were left to grow untreated overnight. Compound E626-0342, dissolved in DMSO at a stock concentration of 10 mM was then added to each well in a dose dependent manner, resulting in final concentrations extending from 0.5 to 15 μM. The final concentration of DMSO in each well was 1% v/v. Untreated cells and cells subjected to 1% DMSO alone, served as controls. The number of viable cells in each well was determined 96 hours after addition of the compound, using the XTT test (Berridge, M. V. et al, 2005).
On the technique in general: Tetrazolium dyes change colour on reduction, which living cells bring about.

For assay [2], the system named is HCT116 human colorectal carcinoma cells. Put plainly: XTT test, number of viable cells, HCT116. The method, then: as §1, §2, §3, §4
Assay [3] concerns MDA-MB-231 breast cancer cell line. Put plainly: XTT test, number of viable cells, MDA-MB-231. Particulars: Homo sapiens, concentrations tested up to 80 μM. Here is the method:
as §1, §2

Assay [4] relates to MCF-7 breast cancer cell line. The experiment in a line: XTT test, number of viable cells, MCF-7. Particulars: Homo sapiens, MCF7, concentrations tested up to 80 μM. The method, then: as §1, §2
Assay [5] concerns PC3 prostate cancer cell line. Put plainly: XTT test, number of viable cells, PC3. The following applies: concentrations tested up to 80 μM. The method, then:
as §1, §2

Assay [6] concerns DU145 prostate cancer cell line. The experiment in a line: XTT test, number of viable cells, DU145. The following applies: Homo sapiens, DU-145, concentrations tested up to 80 μM. Here is the method: as §1, §2
Assay [7] has as its system FS11 human fibroblastic cells. Put plainly: XTT test, number of viable cells, FS11 non-malignant fibroblasts. Particulars: for EC50: Homo sapiens, Fibroblast, XTT test, concentrations tested up to 80 μM. The method, then:
as §1, §2, §3, §4

In the next assay the target is T1, murine Fer (Mus musculus, UniProt P70451).
T1 construct: expressed in transfected cells; host or cells: S. cerevisiae yeast cells harboring plasmid pAES-Fer
The experiment in a line: Fer tyrosine phosphorylation in yeast cells expressing ectopic Fer (western blot). The following applies: 40 μM for 48 h. The method, then: To examine whether the above listed compounds affect the enzymatic activity of Fer, the protein tyrosine phosphorylation profile in yeast cells which ectopically express the murine Fer, was analyzed using the yeast system disclosed in WO2007/107991. Since the S. cerevisae yeast cells lack almost completely detectable, endogenous, tyrosine phosphorylation activity, the detected tyrosine phosphorylation signals result essentially from the kinase activity of the ectopic Fer. Furthermore, considering the negligible tyrosine-phosphorylation background in the cells, it is possible to specifically track the tyrosine phosphorylation level of Fer in the treated yeast cells.
Yeast cells expressing an ectopic Fer were treated with 40 μM of one of the compounds 497, 631, 115 and 540 for 48 h. […] The expression levels of Fer and the tyrosine phosphorylation profiles of the proteins before and after treatment with the compounds were determined using a western-blot analysis. […]
To examine whether E626-0342 affects the enzymatic activity of Fer, the protein tyrosine phosphorylation profile in yeast cells which ectopically express the murine Fer, was analyzed. Since the S. cerevisae yeast cells lack almost completely detectable, endogenous, tyrosine phosphorylation activity, the detected tyrosine phosphorylation signals result essentially from the kinase activity of the ectopic Fer. […]

The mark [8] stands for this setting: HT-29, XTT test, concentrations tested up to 80 μM, read-out: EC50 on HT29.
The mark [9] stands for this setting: HCT-116, XTT test, concentrations tested up to 80 μM, read-out: EC50 on HCT116.

T1 sequence (P70451 whole entry): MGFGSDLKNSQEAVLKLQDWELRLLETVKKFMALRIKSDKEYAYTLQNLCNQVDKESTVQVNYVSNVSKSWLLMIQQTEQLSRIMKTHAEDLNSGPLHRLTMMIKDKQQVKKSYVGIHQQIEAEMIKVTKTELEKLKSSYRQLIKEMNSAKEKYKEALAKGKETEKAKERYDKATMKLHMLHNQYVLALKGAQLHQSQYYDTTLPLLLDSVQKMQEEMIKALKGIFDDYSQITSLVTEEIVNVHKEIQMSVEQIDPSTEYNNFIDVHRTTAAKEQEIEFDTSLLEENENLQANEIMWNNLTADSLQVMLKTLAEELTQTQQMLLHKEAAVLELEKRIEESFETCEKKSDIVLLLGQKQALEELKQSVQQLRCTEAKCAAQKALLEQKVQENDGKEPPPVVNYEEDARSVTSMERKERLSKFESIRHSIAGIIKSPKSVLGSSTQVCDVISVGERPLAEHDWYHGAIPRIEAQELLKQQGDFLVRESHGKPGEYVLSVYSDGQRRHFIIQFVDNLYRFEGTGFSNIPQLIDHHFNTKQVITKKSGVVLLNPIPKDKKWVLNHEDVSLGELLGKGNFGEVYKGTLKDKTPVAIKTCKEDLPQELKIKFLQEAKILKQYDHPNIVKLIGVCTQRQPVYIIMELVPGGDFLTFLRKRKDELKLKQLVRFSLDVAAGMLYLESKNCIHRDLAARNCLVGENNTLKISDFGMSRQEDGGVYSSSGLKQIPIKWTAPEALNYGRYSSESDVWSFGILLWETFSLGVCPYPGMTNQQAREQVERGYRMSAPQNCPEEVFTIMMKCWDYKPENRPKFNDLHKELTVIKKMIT

Consider `Nc1cc(-c2ccc(Cl)cc2)nn1S(=O)(=O)c1c(F)c(F)c(F)c(F)c1F` [Compound 497], for which the EC50 (in general, the concentration that produces a half-maximal response) in assay [1] (setting [8]) was 2 µM; in assay [2] (setting [9]), 2 µM; in assay [3], 2 µM; in assay [4], 8 µM; in assay [5] it was 4 µM; in assay [6] it was 8 µM. Moreover, it took 4 µM to reach a half-maximal effect in assay [7] (EC50). Also, the IC50 – broadly, the concentration that gives 50% inhibition – in assay [1] (HT-29, after 96 h, read-out: IC50, reduction in number of viable cells, HT29) amounted to 2 µM; in assay [2] (HCT-116, after 96 h, read-out: IC50, reduction in number of viable cells, HCT116), 2 µM. Further, at murine Fer, the “tyrosine phosphorylation level of the Fer protein band (Fer autophosphorylation)” value is given as “significant reduction”.
As to `CC(C)c1nn2cc(-c3ccc(F)cc3)nc2s1` [Compound 631], the half-maximal effective concentration (EC50) came out at 40 µM in assay [1] (HT-29, 0.4% DMSO, 0.4 to 80 μM, read-out: EC50, decrease in cell viability, HT29); 30 µM in assay [1] (setting [8]); 24 µM in assay [2] (HCT-116, 0.4% DMSO, 0.4 to 80 μM, read-out: EC50, decrease in cell viability, HCT116); 24 µM in assay [2] (setting [9]); 32 µM in assay [3]; 32 µM in assay [5]. Further, the “effect on FS11 cells” value in assay [7] (up to a concentration of 80 μM) is “did not affect”. On murine Fer, the “tyrosine phosphorylation level of the Fer protein band (Fer autophosphorylation)” value was “significant reduction”.
As for `Cc1ccn2cc(-c3ccc(F)cc3)cc2c1` [Compound 115], the 50% effective concentration (EC50) in assay [1] (setting [8]) is 32 µM; in assay [2] (setting [9]), 32 µM; in assay [3] it was 40 µM; in assay [4], 8 µM; in assay [7], greater than 80 µM.
